This passage reports DC50 results from patent US20240190880A1 (THE REGENTS OF THE UNIVERSITY OF MICHIGAN, priority 2021, published 2024).

As a reminder, the DC50 is the midpoint of the concentration-degradation curve.

One assay deals with T1, ER (Homo sapiens, UniProt P03372).
T1 construct: host or cells: T47D and MCF7 human breast cancer cells
T1 sequence (P03372 1-595): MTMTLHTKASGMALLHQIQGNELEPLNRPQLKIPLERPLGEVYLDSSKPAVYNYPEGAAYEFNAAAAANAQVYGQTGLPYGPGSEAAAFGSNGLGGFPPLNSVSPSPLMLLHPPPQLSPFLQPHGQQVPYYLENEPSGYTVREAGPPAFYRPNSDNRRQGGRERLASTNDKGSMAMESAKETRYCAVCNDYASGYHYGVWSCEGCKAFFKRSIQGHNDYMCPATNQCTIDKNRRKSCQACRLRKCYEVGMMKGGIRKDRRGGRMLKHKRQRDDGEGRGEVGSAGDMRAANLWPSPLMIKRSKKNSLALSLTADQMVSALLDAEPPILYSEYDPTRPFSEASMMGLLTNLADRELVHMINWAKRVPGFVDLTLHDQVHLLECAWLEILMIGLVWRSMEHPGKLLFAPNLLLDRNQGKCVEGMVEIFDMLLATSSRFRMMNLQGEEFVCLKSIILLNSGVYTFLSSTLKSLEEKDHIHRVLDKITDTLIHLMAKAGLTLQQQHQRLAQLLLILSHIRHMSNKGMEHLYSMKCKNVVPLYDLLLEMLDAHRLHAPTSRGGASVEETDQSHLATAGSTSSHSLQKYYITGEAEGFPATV
As to the kind of experiment: ER degradation activity, in-cell western blot analysis in T47D cells. In kind it is cell-based. Particulars: 16 hours, Table A does not say which cell line (T47D or MCF7), read-out: Potency (DC50). The procedure, abridged:
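ER protein remaining after 16 h compound exposure is quantified in T47D cells by in-cell western, with a no-primary-antibody background control. Values are percentages of DMSO-treated signal.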
`O=C1CCC(N2C(=O)c3cc4c(cc3C2=O)CN(CC2CN(C(=O)C3CN(c5ccc([C@@H]6c7ccc(O)cc7CC[C@@H]6c6ccccc6)cc5)C3)C2)C4)C(=O)N1` (stereo partly drawn) [E 200, 2-(2,6-dioxopiperidin-3-yl)-6-((1-(1-(4-((1R,2S)-6-hydroxy-2-phenyl-1,2,3,4-tetrahydronaphthalen-1-yl)phenyl)azetidine-3-carbonyl)azetidin-3-yl)methyl)-6,7-dihydropyrrolo[3,4-f]isoindole-1,3(2H,5H)-dione]: the DC50 was over 100 nM.

`C[C@@H]1Cc2c([nH]c3ccccc23)[C@@H](c2ccc(C3CCC(C(=O)N4CCC(N5Cc6cc7c(cc6C5)C(=O)N(C5CCC(=O)NC5=O)C7=O)CC4)CC3)cn2)N1CC(F)F` (stereo partly drawn) [E 313, 6-(1-(4-(6-((1S,3R)-2-(2,2-difluoroethyl)-3-methyl-2,3,4,9-tetrahydro-1H-pyrido[3,4-b]indol-1-yl)pyridin-3-yl)cyclohexane-1-carbonyl)piperidin-4-yl)-2-(2,6-dioxopiperidin-3-yl)-6,7-dihydropyrrolo[3,4-f]isoindole-1,3(2H,5H)-dione]: the DC50 was in the range of 10 to 100 nM.

With `O=C1CCC(N2C(=O)c3cc4c(cc3C2=O)CN(C(=O)CN2CCC3(CC2)CCN(c2ccc(C(=C(CCCl)c5ccccc5)c5ccc(O)cc5)cc2)C3)C4)C(=O)N1` (stereo not shown) [E 191, 6-(2-(2-(4-(4-chloro-1-(4-hydroxyphenyl)-2-phenylbut-1-en-1-yl)phenyl)-2,8-diazaspiro[4.5]decan-8-yl)acetyl)-2-(2,6-dioxopiperidin-3-yl)-6,7-dihydropyrrolo[3,4-f]isoindole-1,3(2H,5H)-dione], the DC50 lay in the range of 10 to 100 nM.

For `C[C@@H]1Cc2c([nH]c3ccccc23)[C@@H](c2c(F)cc(N3CCC4(CC3)CC(C(=O)N3CCC(CN5Cc6cc7c(cc6C5)C(=O)N(C5CCC(=O)NC5=O)C7=O)CC3)C4)cc2F)N1CC(F)F` (stereo partly drawn) [E 99, 6-((1-(7-(4-((1R,3R)-2-(2,2-difluoroethyl)-3-methyl-2,3,4,9-tetrahydro-1H-pyrido[3,4-b]indol-1-yl)-3,5-difluorophenyl)-7-azaspiro[3.5]nonane-2-carbonyl)piperidin-4-yl)methyl)-2-(2,6-dioxopiperidin-3-yl)-6,7-dihydropyrrolo[3,4-f]isoindole-1,3(2H,5H)-dione], the DC50 was 10 to 100 nM.

For the compound `C[C@@H]1Cc2c([nH]c3ccccc23)[C@@H](c2c(F)cc(N3CCC4(CCN(C(=O)CN5Cc6cc7c(cc6C5)C(=O)N(C5CCC(=O)NC5=O)C7=O)CC4)CC3)cc2F)N1CC(F)(F)F` (stereo partly drawn) [E 226, 6-(2-(9-(3,5-difluoro-4-((1R,3R)-3-methyl-2-(2,2,2-trifluoroethyl)-2,3,4,9-tetrahydro-1H-pyrido[3,4-b]indol-1-yl)phenyl)-3,9-diazaspiro[5.5]undecan-3-yl)-2-oxoethyl)-2-(2,6-dioxopiperidin-3-yl)-6,7-dihydropyrrolo[3,4-f]isoindole-1,3(2H,5H)-dione], the DC50 fell in the range of 10 to 100 nM.

For `O=C1CCC(N2C(=O)c3cc4c(cc3C2=O)CN(C2CCC(C(=O)N3CCN(c5ccc([C@@H]6c7ccc(O)cc7CC[C@@H]6c6ccccc6)cc5)CC3)CC2)C4)C(=O)N1` (stereo partly drawn) [E 291, 2-(2,6-dioxopiperidin-3-yl)-6-(4-(4-(4-((1R,2S)-6-hydroxy-2-phenyl-1,2,3,4-tetrahydronaphthalen-1-yl)phenyl)piperazine-1-carbonyl)cyclohexyl)-6,7-dihydropyrrolo[3,4-f]isoindole-1,3(2H,5H)-dione], the DC50 is over 100 nM.

Turning to `O=C1CCC(N2C(=O)c3cc4c(cc3C2=O)CN(C(=O)CN2CCC3(CC2)CCN(c2ccc([C@@H]5c6ccc(O)cc6CC[C@@H]5c5ccccc5)c(F)c2)C3)C4)C(=O)N1` (mixture of isomers) [E 153, Rac-2-(2,6-dioxopiperidin-3-yl)-6-(2-(2-(3-fluoro-4-((1S,2S)-6-hydroxy-2-phenyl-1,2,3,4-tetrahydronaphthalen-1-yl)phenyl)-2,8-diazaspiro[4.5]decan-8-yl)acetyl)-6,7-dihydropyrrolo[3,4-f]isoindole-1,3(2H,5H)-dione], the DC50 is over 100 nM.

Turning to `C[C@@H]1Cc2c([nH]c3ccccc23)[C@@H](c2c(F)cc(N3CC4(CCCN(CC(=O)N5Cc6cc7c(cc6C5)C(=O)N(C5CCC(=O)NC5=O)C7=O)C4)C3)cc2F)N1CC(F)F` (stereo partly drawn) [E 105, 6-(2-(2-(4-((1R,3R)-2-(2,2-difluoroethyl)-3-methyl-2,3,4,9-tetrahydro-1H-pyrido[3,4-b]indol-1-yl)-3,5-difluorophenyl)-2,6-diazaspiro[3.5]nonan-6-yl)acetyl)-2-(2,6-dioxopiperidin-3-yl)-6,7-dihydropyrrolo[3,4-f]isoindole-1,3(2H,5H)-dione], the DC50 was over 100 nM.

`O=C1CCC(N2C(=O)c3cc4c(cc3C2=O)CN(CC(=O)N2CCC3(CC2)CCN(c2ccc([C@@H]5c6ccc(O)cc6CC[C@@H]5c5ccccc5)cc2)C3)C4)C(=O)N1` (mixture of isomers) [E 139, Rac-2-(2,6-dioxopiperidin-3-yl)-6-(2-(2-(4-((1R,2S)-6-hydroxy-2-phenyl-1,2,3,4-tetrahydronaphthalen-1-yl)phenyl)-2,8-diazaspiro[4.5]decan-8-yl)-2-oxoethyl)-6,7-dihydropyrrolo[3,4-f]isoindole-1,3(2H,5H)-dione]: the DC50 fell in the range of 10 to 100 nM.

Staying with this assay, now noted: compounds 16 hours, Table A does not say whether T47D or MCF7, read-out: Potency (DC50).
Regarding `O=C1CCC(N2C(=O)c3cc4c(cc3C2=O)CN(CC(=O)N2CCC3(CC2)CCN(C(=O)c2ccc([C@@H]5c6ccc(O)cc6CC[C@@H]5c5ccccc5)cc2)CC3)C4)C(=O)N1` (stereo partly drawn) [E 495, 2-(2,6-dioxopiperidin-3-yl)-6-(2-(9-(4-((1R,2S)-6-hydroxy-2-phenyl-1,2,3,4-tetrahydronaphthalen-1-yl)benzoyl)-3,9-diazaspiro[5.5]undecan-3-yl)-2-oxoethyl)-6,7-dihydropyrrolo[3,4-f]isoindole-1,3(2H,5H)-dione], the DC50 was over 100 nM.

Take `COc1cc([C@H]2CC[C@H](C(=O)N3CCC(N4Cc5cc6c(cc5C4)C(=O)N(C4CCC(=O)NC4=O)C6=O)CC3)CC2)ncc1[C@@H]1c2[nH]c3ccccc3c2C[C@@H](C)N1CC(F)F` (stereo partly drawn) [E 397, 6-(1-((1R,4r)-4-(5-((1R,3R)-2-(2,2-difluoroethyl)-3-methyl-2,3,4,9-tetrahydro-1H-pyrido[3,4-b]indol-1-yl)-4-methoxypyridin-2-yl)cyclohexane-1-carbonyl)piperidin-4-yl)-2-(2,6-dioxopiperidin-3-yl)-6,7-dihydropyrrolo[3,4-f]isoindole-1,3(2H,5H)-dione]: the DC50 is over 100 nM.

Consider `O=C1CCC(N2Cc3cc4c(cc3C2=O)CN(C2CN(CC3CCN(c5ccc([C@@H]6c7ccc(O)cc7CC[C@@H]6c6ccccc6)cc5)CC3)C2)C4=O)C(=O)N1` (stereo partly drawn) [E 505, 2-(2,6-dioxopiperidin-3-yl)-6-(1-((1-(4-((1R,2S)-6-hydroxy-2-phenyl-1,2,3,4-tetrahydronaphthalen-1-yl)phenyl)piperidin-4-yl)methyl)azetidin-3-yl)-2,3,6,7-tetrahydropyrrolo[3,4-f]isoindole-1,5-dione], for which the DC50 is over 100 nM.

In the case of `O=C1CCC(N2C(=O)c3cc4c(cc3C2=O)CN(CC(=O)N2CCC3(CC2)CCN(c2ccc([C@@H]5c6ccc7[nH]ncc7c6CC[C@@H]5c5ccccc5)cc2)CC3)C4)C(=O)N1` (stereo partly drawn) [E 423, 2-(2,6-dioxopiperidin-3-yl)-6-(2-oxo-2-(9-(4-((6R,7S)-7-phenyl-6,7,8,9-tetrahydro-3H-benzo[e]indazol-6-yl)phenyl)-3,9-diazaspiro[5.5]undecan-3-yl)ethyl)-6,7-dihydropyrrolo[3,4-f]isoindole-1,3(2H,5H)-dione], the half-maximal degradation concentration (DC50) was 10 to 100 nM.
